Data from paper PMC11601558, “SLC6A19 inhibition facilitates urinary neutral amino acid excretion and lowers plasma phenylalanine” (JCI Insight, 2024).
Where “and” joins values, the source holds several entries; their conditions need not be identical. Identical values can stand only once.

Tested on: WT C57Bl/6J mice
Assay: Urine amino acid excretion in WT C57Bl/6J mice after JN-170
Type: in vivo, mouse
Set-up: urine Gln excretion / urine Phe excretion: unit not given here
Conditions: for 12 hour urine Arg (Fig 2b) / 12 hour urine Gln (Fig 2b) / 12 hour urine Glu (Fig 2b) / 12 hour urine His (Fig 2b) / 12 hour urine Lys (Fig 2b) / 12 hour urine Met (Fig 2b) / 12 hour urine Phe (Fig 2b) / 12 hour urine Pro (Fig 2b) / 12 hour urine Ser (Fig 2b) / 12 hour urine Thr (Fig 2b) / 12 hour urine Trp (Fig 2b) / 12 hour urine Tyr (Fig 2b): individual mice
Description: Male homozygous BTBR-Pah<enu2>/J (Pah^enu2) aged 10–13 weeks were purchased from Jackson Laboratory (no. 002232). Immediately before dosing, each animal’s bladder was manually emptied and a plasma sample was drawn. Animals were dosed by oral gavage with vehicle (10% DMSO, 20% 2-hydroxypropyl-β-cyclodextrin [Sigma-Aldrich]) followed by a 1-week washout prior to dosing with JN-170 at doses ranging from 50 to 250 mg/kg. Following dosing with vehicle or JN-170, animals were individually placed in metabolic cages to collect urine samples. After collection of each urine sample, cages were rinsed with ultra-pure water to recover residual analytes. Blood samples were collected predose as well as 1, 3, 8, 12, and 24 hours after dosing with vehicle or JN-170 into tubes with EDTA as a […], and plasma was separated by centrifuging samples at 2,200g for 5 minutes at 4°C. Throughout the study, mice had access to food and water ad libitum. Plasma and urine samples were stored at –80°C until processing.Ten-week-old male WT C57Bl/6J animals (Si Bei Fu Laboratory Animal Technology Co. Ltd.) were dosed either with vehicle or 50–250 mg/kg JN-170 by oral gavage and blood and urine samples were collected as described. All animals had unrestricted access to food and water during the study; C57Bl/6J were kept on rodent maintenance diet from Beijing Keao Xieli, Pah^enu2 mice were kept on Teklad diet no. T.2018.
Urine and cage-wash samples were vortexed and centrifuged at 3,700g for 5 minutes to remove any solid precipitate. Neat samples and samples diluted 1:10 in water were further diluted 1:10 in crash solution (75% acetonitrile 25% methanol, 0.1% formic acid, 5 mM heavy labeled amino acids) to precipitate proteins. Samples were centrifuged at 3,700g for 5 minutes before the supernatant was transferred into an injection plate. Urine amino acid analysis was carried out using a quadrupole time of flight (QToF) LC-mass spectrometry (QToF-LC-MS) bioanalytical method. A standard curve of 1 mM down to 0.06 μM was used as the calibration curve to which samples were quantified. The amino acid concentrations were calculated with a 1/×2 linear regression over a concentration range of 60 nM to 1,000 μM of the individual amino acids. An Agilent QToF 6545 was operated in an accurate mass full scan range of 100–1,700 m/z positive ions formed by electrospray ionization with a normal phase HILIC chromatographic method. An Agilent InfinityLab Poroshell 120 HILIC-Z, 2.1 × 150 mm, 2.7 μm was used as the analytical column with 10 mM Ammonium Acetate in 0.1% FA as mobile phase A and 10 mM Ammonium Acetate in 95% ACN, 0.1% FA as mobile phase B. At a flow rate of 0.25 mL/min, the binary gradient increased from an initial 100% phase B to 90% phase B over 3 minutes. After 1.5 minutes, the gradient ramped to 80% mobile phase B. At 5.6 minutes into the gradient, mobile phase B ramped from 60% to 0% and held for 2 minutes before returning to initial conditions at 7.5 minutes. The gradient was stopped at 10 minutes.Total urine amino acid amounts were calculated by multiplying urine amino acid concentrations by the urine volume and adding the amount of amino acid recovered in the cage wash, which was calculated by multiplying the cage wash amino acid concentration by the cage wash volume.

[1] = Fig S3b, WT mice, individual animals
[2] = WT mice, 0–3 hours after 200 mg/kg

## N#Cc1ccc(-c2noc([C@]3(C(F)(F)F)CCN(C(=O)NCCC4(N)CC4)C3)n2)cc1 [JN-170]
50 mg/kg single oral dose
  12 hour urine Arg (Fig 2b): 42.35 µg and 21.61 µg and 86.86 µg and 32.17 µg and 60.46 µg and 54.76 µg
  12 hour urine Gln (Fig 2b): 1216.88 µg and 424.1 µg and 3207.04 µg and 1668.39 µg and 2208.59 µg and 1050.68 µg
  12 hour urine Glu (Fig 2b): 29.83 µg and 17.33 µg and 39.89 µg and 30.41 µg and 48.52 µg and 28.91 µg
  12 hour urine His (Fig 2b): 99.8 µg and 39.7 µg and 232.38 µg and 133.78 µg and 173.51 µg and 97.64 µg
  12 hour urine Lys (Fig 2b): 34.24 µg and 15.87 µg and 87.69 µg and 25.64 µg and 70.14 µg and 37.6 µg
  12 hour urine Met (Fig 2b): 22.43 µg and 9.44 µg and 86.47 µg and 39.61 µg and 54.33 µg
  12 hour urine Phe (Fig 2b): 9.69 µg and 12.9 µg and 44.78 µg and 18.25 µg and 46.82 µg and 10.07 µg
  12 hour urine Pro (Fig 2b): 8.47 µg and 4.8 µg and 12.9 µg and 9.81 µg and 24.06 µg and 10.26 µg
  12 hour urine Ser (Fig 2b): 30.76 µg and 12.92 µg and 98.91 µg and 47.01 µg and 97.58 µg and 29.03 µg
  12 hour urine Thr (Fig 2b): 158.71 µg and 83.75 µg and 358.72 µg and 229.83 µg and 330.77 µg and 183.12 µg
  12 hour urine Trp (Fig 2b): 7.91 µg and 4.53 µg and 17.51 µg and 12.59 µg and 19.36 µg and 8.39 µg
  12 hour urine Tyr (Fig 2b): 86.45 µg and 42.23 µg and 289.76 µg and 150.67 µg and 234.77 µg and 101.34 µg
100 mg/kg single oral dose
  12 hour urine Arg (Fig 2b): 84.18 µg and 60.05 µg and 104.07 µg and 105.27 µg and 46.38 µg and 44.86 µg
  12 hour urine Gln (Fig 2b): 3618.3 µg and 3716.4 µg and 5677.3 µg and 3847.03 µg and 3083.95 µg and 2876.64 µg
  12 hour urine Glu (Fig 2b): 46.32 µg and 46.97 µg and 58.94 µg and 50.51 µg and 40.88 µg and 28.49 µg
  12 hour urine His (Fig 2b): 295.94 µg and 255.87 µg and 436.69 µg and 286 µg and 268.58 µg and 216 µg
  12 hour urine Lys (Fig 2b): 113.28 µg and 69.96 µg and 170.84 µg and 119.16 µg and 64.12 µg and 61.63 µg
  12 hour urine Met (Fig 2b): 69.6 µg and 61.3 µg and 109.16 µg and 65.46 µg and 59.17 µg and 56.84 µg
  12 hour urine Phe (Fig 2b): 57.79 µg and 56.42 µg and 118.09 µg and 57.72 µg and 36.93 µg and 35.59 µg
  12 hour urine Pro (Fig 2b): 8.92 µg and 10.04 µg and 30.88 µg and 13.13 µg and 10.09 µg and 9.04 µg
  12 hour urine Ser (Fig 2b): 108.24 µg and 109.95 µg and 223.3 µg and 89.79 µg and 97.93 µg and 80.73 µg
  12 hour urine Thr (Fig 2b): 506.96 µg and 408.61 µg and 713.8 µg and 526.01 µg and 450.28 µg and 363.04 µg
  12 hour urine Trp (Fig 2b): 23.65 µg and 18.61 µg and 32.89 µg and 21.7 µg and 20.33 µg and 13.52 µg
  12 hour urine Tyr (Fig 2b): 347.53 µg and 292.84 µg and 493.76 µg and 286.11 µg and 269.6 µg and 215.7 µg
200 mg/kg single oral dose
  12 hour urine Arg (Fig 2b): 57.75 µg and 78.23 µg and 75.91 µg and 43.73 µg and 83.72 µg and 75.77 µg
  12 hour urine Gln (Fig 2b): 4199.73 µg and 4322.77 µg and 4076.82 µg and 4061.16 µg and 5861.18 µg and 4643.5 µg
  12 hour urine Glu (Fig 2b): 38.45 µg and 57.79 µg and 49.69 µg and 35.38 µg and 50.26 µg and 67.43 µg
  12 hour urine His (Fig 2b): 416.82 µg and 349.23 µg and 335.84 µg and 309.72 µg and 451.38 µg and 370.2 µg
  12 hour urine Lys (Fig 2b): 104.5 µg and 123.16 µg and 131.26 µg and 79.18 µg and 151.5 µg and 70.63 µg
  12 hour urine Met (Fig 2b): 123.47 µg and 86.31 µg and 49.16 µg and 59.08 µg and 101.09 µg and 139.58 µg
  12 hour urine Phe (Fig 2b): 133.44 µg and 84.26 µg and 51.41 µg and 40.35 µg and 175.28 µg and 83.35 µg
  12 hour urine Pro (Fig 2b): 13.11 µg and 14.35 µg and 18.33 µg and 8.21 µg and 20.58 µg and 15.61 µg
  12 hour urine Ser (Fig 2b): 170.69 µg and 159.37 µg and 110.1 µg and 92.34 µg and 194.17 µg and 159.84 µg
  12 hour urine Thr (Fig 2b): 631.21 µg and 617.4 µg and 618.83 µg and 576.45 µg and 832.11 µg and 699.79 µg
  12 hour urine Trp (Fig 2b): 40.01 µg and 30.26 µg and 27.35 µg and 18.62 µg and 33.13 µg and 31.85 µg
  12 hour urine Tyr (Fig 2b): 480.66 µg and 434.44 µg and 355.04 µg and 315.96 µg and 607.88 µg and 491.56 µg
250 mg/kg single oral dose
  12 hour urine Arg (Fig 2b): 80.65 µg and 55.84 µg and 88.5 µg and 63.14 µg and 86.48 µg and 72.88 µg
  12 hour urine Gln (Fig 2b): 7107.31 µg and 3727.75 µg and 5603.56 µg and 4267.69 µg and 6411.47 µg and 5312.07 µg
  12 hour urine Glu (Fig 2b): 72.56 µg and 44.09 µg and 57.4 µg and 37.58 µg and 54.56 µg and 45.85 µg
  12 hour urine His (Fig 2b): 551.64 µg and 312.28 µg and 484.93 µg and 357.16 µg and 531.6 µg and 380.26 µg
  12 hour urine Lys (Fig 2b): 195.46 µg and 113.58 µg and 174.58 µg and 158.8 µg and 185.91 µg and 135.3 µg
  12 hour urine Met (Fig 2b): 187.74 µg and 68.61 µg and 113.61 µg and 89.08 µg and 102.86 µg and 165.83 µg
  12 hour urine Phe (Fig 2b): 183.47 µg and 73.49 µg and 113.19 µg and 97.89 µg and 98.25 µg and 112.7 µg
  12 hour urine Pro (Fig 2b): 23.91 µg and 11.83 µg and 17.19 µg and 13.18 µg and 15.23 µg and 18.44 µg
  12 hour urine Ser (Fig 2b): 292.3 µg and 114.91 µg and 195.78 µg and 144.05 µg and 202.42 µg and 201.61 µg
  12 hour urine Thr (Fig 2b): 952.09 µg and 536.61 µg and 931.14 µg and 639.81 µg and 964.07 µg and 684.47 µg
  12 hour urine Trp (Fig 2b): 51.77 µg and 27.86 µg and 38.14 µg and 35.4 µg and 37.19 µg and 32.26 µg
  12 hour urine Tyr (Fig 2b): 668.76 µg and 364.7 µg and 555.89 µg and 445.94 µg and 662.56 µg and 523.46 µg
250 mg/kg, 12 h urine
  increase in urinary Gln excretion vs vehicle: 84 fold
  increase in urinary His excretion vs vehicle: 32 fold
  increase in urinary Thr excretion vs vehicle: 29 fold
  urinary Gln excretion, mean ± SD: 5,405 ± 1270 μg
  urinary His excretion, mean ± SD: 436 ± 100 µg
  urinary Thr excretion, mean ± SD: 785 ± 187 µg
250 mg/kg, 12 h urine, effect negligible
  urinary Pro excretion, mean ± SD: 17 ± 4 µg
[1]
  urine Gln excretion: 1587.77 and 1811.58 and 1136.33 and 1371.1 and 1542.95 and 797.75
  urine Phe excretion: 31.41 and 35.2 and 15.95 and 12.69 and 89.66 and 34.45
[2]
  glutamine excreted in urine, mean ± SD: 1,375 ± 362 μg
  urinary excretion of Phe, mean ± SD: 37 ± 28 µg
